Measured values from PubChem BioAssay (NCI).
Where “and” joins values, the source holds several entries; their conditions need not be identical. Equal values may be shown once.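 Method: 48-hour compound exposure of cells in 96-well plates, five concentrations, linear interpolation of endpoints. GI50: concentration for 50% inhibition of growth. TGI is the concentration that stops growth completely.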

What was measured:
Assay in all cases: NCI tumour cell line growth inhibition, 48 h
M19-MEL melanoma = system: M19-MEL melanoma
DLD-1 colon = system: DLD-1 colon
DMS 114 small cell lung = system: DMS 114 small cell lung
LXFL 529 NSCLC = system: LXFL 529 NSCLC
KM20L2 colon = system: KM20L2 colon
SNB-78 CNS = system: SNB-78 CNS
CCRF-CEM leukemia = system: CCRF-CEM leukemia
RXF-631 renal = system: RXF-631 renal
DMS 273 small cell lung = system: DMS 273 small cell lung
HS 578T breast = system: HS 578T breast
XF 498 CNS = system: XF 498 CNS
PC-3 prostate = system: PC-3 prostate
HOP-18 NSCLC = system: HOP-18 NSCLC

SMILES	TGI (M19-MEL melanoma) [µM]	TGI (DLD-1 colon) [µM]	TGI (DMS 114 small cell lung)	TGI (LXFL 529 NSCLC) [µM]	TGI (KM20L2 colon) [µM]	TGI (SNB-78 CNS) [µM]	TGI (CCRF-CEM leukemia) [µM]	TGI (RXF-631 renal) [µM]	TGI (DMS 273 small cell lung) [µM]	TGI (HS 578T breast) [µM]	GI50 (M19-MEL melanoma) [µM]	TGI (XF 498 CNS)	GI50 (DMS 114 small cell lung) [µM]	TGI (PC-3 prostate) [µM]	GI50 (SNB-78 CNS) [µM]	GI50 (RXF-631 renal) [µM]	TGI (HOP-18 NSCLC) [µM]
O=C1NC(=O)C(C(=O)C(=O)Nc2cc(Cl)ccc2Cl)C(=O)N1	> 100	> 100	> 100 µM	> 100	> 100	> 100	> 100	> 100									
CCN(CC)CCNc1c2ccccc2nc2cccc([N+](=O)[O-])c12	0.0409		0.0935 µM and 0.0335 µM	0.0843	0.0553	0.13	0.48	0.0332	0.0787	0.039	0.0156	0.0569 µM and 0.0196 µM	0.0117	0.0122	0.023	0.0107	
NCCOc1ccc(/C(=C(/Cl)c2ccccc2)c2ccccc2)cc1	23.8	33.3	27.1 µM	20	19.9	25	24.6	26.3	25.5			17.6 µM					
CCOC(=O)/C=C/n1c2ccccc2c(=O)c2cc(OC)ccc21	> 100	> 100	> 100 µM	> 100	> 100		> 100	> 100	> 100			> 100 µM					> 100
CCCCn1c(-c2ccccc2)cs/c1=N\N=C1C=C(C(C)(C)C)C(=O)C(C(C)(C)C)=C1	> 100		> 100 µM	> 100	> 100		> 100	> 100	> 100			> 100 µM					
CC1CC(=O)Nc2ccc(Cl)cc2N1C(=O)CN1CCC(CCCCN(C)C)CC1 (configuration not stated)		> 100	> 100 µM	> 100	> 100		> 100	> 100	> 100								> 100
Nc1cn(C2OC(CC(c3ccccc3)(c3ccccc3)c3ccccc3)C(O)C2O)c(=O)[nH]c1=O (configuration not stated)	34.9	54.6	35.4 µM	91.8	42.1	> 100	63.1	> 100	> 100			46.5 µM					67.7
C/C(=C1/N=C(c2cc([N+](=O)[O-])ccc2Cl)N(c2ccc(Br)cc2)C1=O)c1ccc(N(CCC#N)CCC#N)cc1C	92.3	32.2	27.2 µM	> 100	> 100	> 100	32.7	> 100	43.8			> 100 µM					> 100
CCOC(=O)/C(Br)=C1\OC(=O)c2ccccc2-c2ccccc21	> 100	> 100	61.7 µM	99		> 100	67.7	> 100	> 100			> 100 µM					> 100
COC1(OC)CC2C(=O)N(Cc3ccccc3)C1C(S(=O)(=O)c1ccccc1)C2C(C)S(=O)(=O)c1ccccc1 (configuration not stated)	> 100	> 100	> 100 µM	> 100	> 100	> 100	> 100		> 100			> 100 µM					> 100
COC(=O)C(C(=O)C(=O)Nc1ccc(C)cc1)c1nc2ccc([N+](=O)[O-])cc2[nH]c1=O (configuration not stated)	> 100	> 100	> 100 µM	> 100	> 100	> 100	> 100		> 100			> 100 µM					> 100
O=C(Nc1cccc(C(F)(F)F)c1)C(=O)C(C(=O)c1ccc(Cl)c(Cl)c1)C1OC(=O)c2ccccc21 (configuration not stated)	54	> 100	78.6 µM	> 100	> 100	> 100	> 100	> 100	> 100			> 100 µM					> 100
